# Laboratory results from ChEMBL document CHEMBL1130687, “Synthesis and morphological reversion activity on srctsNRK cells of pyrimidinylpropanamide antibiotics, sparsomycin, sparoxomycin A1, A2, and their analogues” (1998).
# Test system: NRK
# Assay: Compound was tested for its morphological reversion activity on srctsNRK cells
# Format: functional
# Settings: Rattus norvegicus, read-out: MEC
row,SMILES,minimal effective concentration [µM]
1,COCOC[C@@H](C[S+]([O-])CSC)NC(=O)/C=C/c1c(C)nc(O)nc1O (some centres not stated),60
2,Cc1nc(O)nc(O)c1/C=C/C(=O)N[C@@H](CO)C[S+]([O-])C[S+](C)[O-] (some centres not stated),530
3,Cc1nc(O)nc(O)c1/C=C/C(=O)N[C@H](CO)C[S+]([O-])C[S+](C)[O-] (some centres not stated),530
4,CCSC[S+]([O-])C[C@H](CO)NC(=O)/C=C/c1c(C)nc(O)nc1O (some centres not stated),20
5,CCC(C)SC[S+]([O-])C[C@H](CO)NC(=O)/C=C/c1c(C)nc(O)nc1O (some centres not stated),180
6,CSC[S+]([O-])C[C@H](CO)NC(=O)/C=C/c1c(C)[nH]c(=O)[nH]c1=O (some centres not stated),6.5
7,CCCCSC[S+]([O-])C[C@H](CO)NC(=O)/C=C/c1c(C)nc(O)nc1O (some centres not stated),60
